Reference: patent US20200288710A1, “SUBSTITUTED SULPHONAMIDES FOR CONTROLLING ANIMAL PESTS” (BAYER CROPSCIENCE AKTIENGESELLSCHAFT, priority 2016, published 2020)

Columns and labels:
Format in all cases: in vivo
[1] = system: Meloidogyne incognita; assay: Meloidogyne incognita test; details: 336 h, lettuce, after 14 days, read-out: nematicidal efficacy (formation of galls)
Outline: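 Gall formation on lettuce roots scored after 14 days: 0% means gall count equals untreated control, 100% means none. Sand vessels held the compound (acetone concentrate diluted in water), southern root-knot nematode egg/larvae suspension and lettuce seeds.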

[2] = system: Myzus persicae; assay: Myzus persicae spray test (Chinese cabbage leaf discs); details: foliar, 120 h, 500 g/ha, after 5-6 days, read-out: efficacy
Outline: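 Formulated compound in acetone/dimethylformamide, diluted in water with 1000 ppm emulsifier, was sprayed onto Brassica pekinensis leaf discs carrying mixed-stage Myzus persicae. Percent mortality was read 5-6 days later (0% = no aphids killed, 100% = all killed).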

[3] = system: Myzus persicae; assay: Myzus persicae oral test; details: 120 h, 20 ppm, oral uptake, after 5 days, read-out: efficacy
Outline: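 Aphids of mixed ages imbibe, through parafilm, compound solution (acetone stock, water-diluted) combined with sugar-supplemented IPL41 medium to 200 μl. Efficacy read at day 5 as percent killed, 0% meaning no deaths.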

Structure (SMILES) | pest or weed control at 20 ppm [1] | pest or weed control at 500 g/ha [2] | pest or weed control at 20 ppm [3]
Cn1cc(C(=O)NS(=O)(=O)c2c(Cl)cccc2C(F)(F)F)nc1-c1c(F)cccc1F [Example 372] | 90% | 100% | 100%
Cn1cc(C(=O)NS(=O)(=O)c2sccc2Br)nc1-c1ccccc1Cl [Example 421] | 90% | 100% | 100%
Cn1cc(C(=O)NS(=O)(=O)c2cc(Cl)cnc2Cl)nc1-c1c(F)cccc1F [Example 343] | 90% | 100% | 90%
CCn1cc(C(=O)NS(=O)(=O)c2ccccc2)nc1-c1ccccc1Cl [Example 41] | 90% | 90% | 90%
Cn1cc(C(=O)NS(=O)(=O)c2ccccc2OC(F)(F)F)nc1-c1c(F)cccc1F [Example 118] | 90% | 100% | 100%
Cn1cc(C(=O)NS(=O)(=O)c2ccccc2Cl)nc1-c1ncccc1F [Example 499] | 90% | 100% | 100%
Cn1cc(C(=O)NS(=O)(=O)c2cccc(Cl)c2Cl)nc1-c1ccccc1Cl [Example 38] | 100% | 90% | 100%
Cn1cc(C(=O)NS(=O)(=O)c2c(F)cccc2C(F)(F)F)nc1-c1c(F)cccc1F [Example 371] | 90% | 90% | 100%
Cn1cc(C(=O)NS(=O)(=O)c2cscc2Br)nc1-c1c(F)cccc1F [Example 183] | 100% | 100% | 100%
Cn1cc(C(=O)NS(=O)(=O)c2ccccc2Cl)nc1-c1cccc(F)c1F [Example 512] | 90% | 90% | 100%
Cc1ccc(S(=O)(=O)NC(=O)c2cn(C)c(-c3c(F)cccc3F)n2)c(C)c1 [Example 443] | 100% | 90% | 100%
Cn1cc(C(=O)NS(=O)(=O)c2cccc(F)c2F)nc1-c1c(F)cccc1F [Example 320] | 90% | 100% | 100%
CCc1ccccc1S(=O)(=O)NC(=O)c1cc(C)n(-c2ncccc2Cl)n1 [Example 284] | 90% | 100% | 100%
CC(C)S(=O)(=O)NC(=O)c1cn(C)c(-c2c(Cl)cccc2Cl)n1 [Example 81] | 100% | 90% | 90%
Cn1cc(C(=O)NS(=O)(=O)c2ccccc2Cl)nc1-c1sccc1Cl [Example 547] | 100% | 90% | 90%
CCc1ccsc1S(=O)(=O)NC(=O)c1cn(C)c(-c2ncccc2Cl)n1 [Example 605] | 90% | 100% | 100%
COc1ccc(C)c(S(=O)(=O)NC(=O)c2cn(C)c(-c3ncccc3F)n2)c1 [Example 593] | 90% | 100% | 100%
Cn1cc(C(=O)NS(=O)(=O)c2c(Cl)cccc2Cl)nc1-c1ncccc1Cl [Example 588] | 90% | 90% | 100%

Structure (SMILES) | pest or weed control at 20 ppm [1] | pest or weed control at 500 g/ha [2] | pest or weed control at 20 ppm [3]
CC(C)Nc1cccc(F)c1S(=O)(=O)NC(=O)c1cn(C)c(-c2c(F)cccc2F)n1 [Example 178] | 100% | 90% | 100%
Cn1cc(C(=O)NS(=O)(=O)c2cccc(Cl)c2)nc1-c1c(F)cccc1Cl [Example 113] | 100% | 90% | 100%
CCSc1cccc(Cl)c1S(=O)(=O)NC(=O)c1cn(C)c(-c2c(F)cccc2F)n1 [Example 179] | 90% | 90% | 100%
Cn1cc(C(=O)NS(=O)(=O)c2cccc(Cl)c2)nc1-c1c(F)cccc1F [Example 45] | 100% | 90% | 90%
COc1ccc(F)cc1S(=O)(=O)NC(=O)c1cn(C)c(-c2ccccc2Cl)n1 [Example 427] | 90% | 100% | 100%
Cc1c(C(=O)NS(C)(=O)=O)nc(-c2ccccc2Cl)n1C [Example 71] | 90% | 90% | 100%
CCn1cc(C(=O)NS(=O)(=O)c2ccccc2Cl)nc1-c1ccccc1Cl [Example 67] | 90% | 90% | 100%
Cc1csc(S(=O)(=O)NC(=O)c2cn(C)c(-c3c(F)cccc3F)n2)c1 [Example 350] | 90% | 100% | 90%
Cn1cc(C(=O)NS(=O)(=O)c2cccc3c2OCC3)nc1-c1c(F)cccc1F [Example 317] | 90% | 90% | 100%
Cn1cc(C(=O)NS(=O)(=O)c2c(Cl)cccc2Cl)nc1-c1c(F)cccc1F [Example 93] | 90% | 90% | 100%
Cn1cc(C(=O)NS(=O)(=O)c2ccccc2Br)nc1-c1cccc(Cl)c1Cl [Example 555] | 90% | 90% | 100%
COc1ccc(Cl)c(S(=O)(=O)NC(=O)c2nc(-c3ccccc3Cl)n(C)n2)c1 [Example 15] | 90% | 90% | 100%
Cn1cc(C(=O)NS(=O)(=O)c2cccc3ccn(C)c23)nc1-c1c(F)cccc1F [Example 323] | 90% | 100% | 100%
CCc1ccccc1S(=O)(=O)NC(=O)c1cn(C)c(-c2cccc3ccccc23)n1 [Example 503] | 90% | 90% | 100%
COc1ccccc1S(=O)(=O)NC(=O)c1cn(C)c(-c2cccc(Cl)c2Cl)n1 [Example 567] | 90% | 100% | 100%
Cn1cc(C(=O)NS(=O)(=O)c2ccc(Br)cc2F)nc1-c1c(F)cccc1F [Example 437] | 90% | 100% | 100%
Cc1ccccc1-c1nc(C(=O)NS(=O)(=O)c2c(Cl)cccc2Cl)cn1C [Example 99] | 90% | 90% | 100%
Cc1ccsc1S(=O)(=O)NC(=O)c1cn(C)c(-c2cccc(Cl)c2Cl)n1 [Example 560] | 100% | 100% | 100%
